Values of other authors as cited in paper PMC4360375 (Journal of Medicinal Chemistry, 2015).

Test system: GABA uptake, rat synaptosome
Settings: literature data set; ref 10.1021/jm00064a005; cited from earlier work

SMILES | pIC50
O=C(O)[C@@H]1CCCN(CCC=C(c2ccccc2)c2ccccc2)C1 [(R)-SK&F-89976-A, OC(=O)[C@@H]1CCCN(C1)CC\C=C(\c1ccccc1)/c1ccccc1] | 6.959
Cc1ccsc1C(=CCCN1CCC[C@H](C(=O)O)C1)c1sccc1C [(S)-Tiagabine, s1ccc(C)c1\C(=C\CCN1C[C@H](CCC1)C(O)=O)\c1sccc1C] | 6.658
Cc1ccsc1C(=CCCN1CCC=C(C(=O)O)C1)c1sccc1C [An_1993_30, s1ccc(C)c1\C(=C\CCN1CC(=CCC1)C(O)=O)\c1sccc1C] | 6.854
Cc1ccccc1/C(=C\CCN1CCC[C@@H](C(=O)O)C1)c1sccc1C [An_1993_31, s1ccc(C)c1/C(=C/CCN1C[C@@H](CCC1)C(O)=O)/c1ccccc1C] | 7.097
Cc1ccccc1/C(=C\CCN1CCC[C@H](C(=O)O)C1)c1sccc1C [An_1993_32, s1ccc(C)c1/C(=C/CCN1C[C@H](CCC1)C(O)=O)/c1ccccc1C] | 6.42
Cc1ccccc1/C(=C\CCN1CCC=C(C(=O)O)C1)c1sccc1C [An_1993_33, s1ccc(C)c1/C(=C/CCN1CC(=CCC1)C(O)=O)/c1ccccc1C] | 6.886
Cc1ccccc1C(=CCCN1CCC[C@@H](C(=O)O)C1)c1ccccc1C [An_1993_34, OC(=O)[C@@H]1CCCN(C1)CC\C=C(\c1ccccc1C)/c1ccccc1C] | 7.097
O=C(O)C1=CCCN(CC/C=C(\c2ccccc2)c2cccs2)C1 [An_1993_36, s1cccc1/C(=C/CCN1CC(=CCC1)C(O)=O)/c1ccccc1] | 6.577
Cc1ccsc1/C(=C/CCN1CCC=C(C(=O)O)C1)c1ccc(Cl)cc1Cl [An_1993_37, Clc1cc(Cl)ccc1\C(=C/CCN1CC(=CCC1)C(O)=O)\c1sccc1C] | 6.495
Cc1ccsc1/C(=C/CCN1CCC=C(C(=O)O)C1)c1cc(Cl)cc(Cl)c1 [An_1993_38, Clc1cc(cc(Cl)c1)/C(=C\CCN1CC(=CCC1)C(O)=O)/c1sccc1C] | 5.73
Cc1ccsc1/C(=C/CCN1CCC[C@@H](C(=O)O)C1)c1cccs1 [An_1993_40, s1ccc(C)c1\C(=C\CCN1C[C@@H](CCC1)C(O)=O)\c1sccc1] | 7.222
Cc1ccsc1/C(=C/CCN1CCC[C@H](C(=O)O)C1)c1cccs1 [An_1993_41, s1ccc(C)c1\C(=C\CCN1C[C@H](CCC1)C(O)=O)\c1sccc1] | 6.161
Cc1ccsc1/C(=C/CCN1CCC=C(C(=O)O)C1)c1cccs1 [An_1993_42, s1ccc(C)c1\C(=C\CCN1CC(=CCC1)C(O)=O)\c1sccc1] | 6.959
Cc1cc(Cl)ccc1/C(=C\CCN1CCC[C@@H](C(=O)O)C1)c1sccc1C [An_1993_44, Clc1cc(C)c(cc1)\C(=C/CCN1C[C@@H](CCC1)C(O)=O)\c1sccc1C] | 6.959
Cc1cc(Cl)ccc1/C(=C\CCN1CCC=C(C(=O)O)C1)c1sccc1C [An_1993_45, Clc1cc(C)c(cc1)\C(=C/CCN1CC(=CCC1)C(O)=O)\c1sccc1C] | 6.523
Cc1ccsc1/C(=C/CCN1CCC[C@@H](C(=O)O)C1)c1c(C)cccc1C [An_1993_46, s1ccc(C)c1/C(=C/CCN1C[C@@H](CCC1)C(O)=O)/c1c(cccc1C)C] | 6.602
Cc1ccc(/C(=C\CCN2CCC[C@@H](C(=O)O)C2)c2sccc2C)c(C)c1 [An_1993_47, s1ccc(C)c1/C(=C/CCN1C[C@@H](CCC1)C(O)=O)/c1ccc(cc1C)C] | 6.585
Cc1ccsc1/C(=C/CCN1CCC=C(C(=O)O)C1)c1ccc(Cl)cc1 [An_1993_48, Clc1ccc(cc1)/C(=C\CCN1CC(=CCC1)C(O)=O)/c1sccc1C] | 6.071
Cn1cccc1/C(=C/CCN1CCC=C(C(=O)O)C1)c1ccccc1 [An_1993_49, OC(=O)C=1CN(CCC=1)CC\C=C(/c1ccccc1)\c1n(ccc1)C] | 6.886

Same assay, conditions: literature data set; ref 10.1021/jm981027k; cited from earlier work

SMILES | pIC50
Cc1ccsc1C(=NOCCN1CCC[C@@H](C(=O)O)C1)c1sccc1C [An_1999/3_12, s1ccc(C)c1\C(=N\OCCN1C[C@@H](CCC1)C(O)=O)\c1sccc1C] | 7.398
Cc1csc(/C(=N/OCCN2CCC[C@@H](C(=O)O)C2)c2ccccc2C)c1 [An_1999/3_20, s1cc(cc1/C(=N/OCCN1C[C@@H](CCC1)C(O)=O)/c1ccccc1C)C] | 6.108
Cc1csc(/C(=N/OCCN2CCC[C@H](C(=O)O)C2)c2ccccc2C)c1 [An_1999/3_21, s1cc(cc1/C(=N/OCCN1C[C@H](CCC1)C(O)=O)/c1ccccc1C)C] | 5.062
Cc1csc(/C(=N\OCCN2CCC[C@@H](C(=O)O)C2)c2ccccc2C)c1 [An_1999/3_22, s1cc(cc1/C(=N\OCCN1C[C@@H](CCC1)C(O)=O)/c1ccccc1C)C] | 6.585
Cc1csc(/C(=N\OCCN2CCC[C@H](C(=O)O)C2)c2ccccc2C)c1 [An_1999/3_23, s1cc(cc1/C(=N\OCCN1C[C@H](CCC1)C(O)=O)/c1ccccc1C)C] | 5.917
Cc1ccccc1/C(=N/OCCN1CCC[C@@H](C(=O)O)C1)c1sccc1C [An_1999/3_39, s1ccc(C)c1/C(=N\OCCN1C[C@@H](CCC1)C(O)=O)/c1ccccc1C] | 7.155
Cc1ccccc1/C(=N\OCCN1CCC[C@@H](C(=O)O)C1)c1sccc1C [An_1999/3_40, s1ccc(C)c1/C(=N/OCCN1C[C@@H](CCC1)C(O)=O)/c1ccccc1C] | 7.046
Cc1ccccc1C(=COCCN1CCC[C@@H](C(=O)O)C1)c1ccccc1C [An_1999/3_45, O(\C=C(\c1ccccc1C)/c1ccccc1C)CCN1C[C@@H](CCC1)C(O)=O] | 7.699
O=C(O)[C@@H]1CCCN(CCOC=C(c2ccccc2)c2ccccc2)C1 [An_1999/3_47, O(\C=C(\c1ccccc1)/c1ccccc1)CCN1C[C@@H](CCC1)C(O)=O] | 7.066
O=C(O)[C@H]1CCCN(CCON=C(c2ccccc2)c2ccccc2)C1 [An_1999/3_61, O(\N=C(\c1ccccc1)/c1ccccc1)CCN1C[C@H](CCC1)C(O)=O] | 6.377
Cc1ccccc1C(=NOCCN1CCC[C@@H](C(=O)O)C1)c1ccccc1C [An_1999/3_62, O(\N=C(\c1ccccc1C)/c1ccccc1C)CCN1C[C@@H](CCC1)C(O)=O] | 7.155
Cc1ccccc1C(=NOCCN1CCC[C@H](C(=O)O)C1)c1ccccc1C [An_1999/3_63, O(\N=C(\c1ccccc1C)/c1ccccc1C)CCN1C[C@H](CCC1)C(O)=O] | 6.886
Cc1ccccc1C(=NOCCN1CCC=C(C(=O)O)C1)c1ccccc1C [An_1999/3_64, O(\N=C(\c1ccccc1C)/c1ccccc1C)CCN1CC(=CCC1)C(O)=O] | 7.222
O=C(O)[C@@H]1CCCN(CCO/N=C(\c2ccc(F)cc2F)c2cc(F)ccc2F)C1 [An_1999/3_67, Fc1cc(F)ccc1/C(=N\OCCN1C[C@@H](CCC1)C(O)=O)/c1cc(F)ccc1F] | 7.301
O=C(O)[C@@H]1CCCN(CCON=C(c2ccc(F)cc2F)c2ccc(F)cc2F)C1 [An_1999/3_68, Fc1cc(F)ccc1\C(=N\OCCN1C[C@@H](CCC1)C(O)=O)\c1ccc(F)cc1F] | 7
Cc1ccccc1/C(=C/OCCN1CCC[C@@H](C(=O)O)C1)c1sccc1C [An_1999/3_69, s1ccc(C)c1/C(=C\OCCN1C[C@@H](CCC1)C(O)=O)/c1ccccc1C] | 7.77

SMILES | pIC50
Cc1ccccc1C(=COCCN1CCC=C(C(=O)O)C1)c1ccccc1C [An_1999/3_70, O(\C=C(\c1ccccc1C)/c1ccccc1C)CCN1CC(=CCC1)C(O)=O] | 7.585
Cc1ccccc1/C(=C\OCCN1CCC[C@@H](C(=O)O)C1)c1cccc(F)c1 [An_1999/3_71, Fc1cc(ccc1)/C(=C/OCCN1C[C@@H](CCC1)C(O)=O)/c1ccccc1C] | 7.523
Cc1ccccc1/C(=C\OCCN1CCC=C(C(=O)O)C1)c1ccccc1F [An_1999/3_72, Fc1ccccc1/C(=C/OCCN1CC(=CCC1)C(O)=O)/c1ccccc1C] | 7.699
O=C(O)[C@@H]1CCCN(CCO/C=C(\c2ccccc2)c2ccccc2Cl)C1 [An_1999/3_73, Clc1ccccc1\C(=C\OCCN1C[C@@H](CCC1)C(O)=O)\c1ccccc1] | 7.921
O=C(O)[C@@H]1CCCN(CCON=C(c2ccccc2Cl)c2ccccc2Cl)C1 [An_1999/3_74, Clc1ccccc1\C(=N\OCCN1C[C@@H](CCC1)C(O)=O)\c1ccccc1Cl] | 7.398
O=C(O)[C@@H]1CCCN(CCO/N=C(/c2cccc(F)c2)c2ccccc2F)C1 [An_1999/3_75, Fc1ccccc1\C(=N/OCCN1C[C@@H](CCC1)C(O)=O)\c1cc(F)ccc1] | 6.658
Cc1ccccc1/C(=C/OCCN1CCC[C@@H](C(=O)O)C1)c1cccc(F)c1 [An_1999/3_76, Fc1cc(ccc1)/C(=C\OCCN1C[C@@H](CCC1)C(O)=O)/c1ccccc1C] | 7.301
Cc1cc(F)ccc1C(=COCCN1CCC[C@@H](C(=O)O)C1)c1ccc(F)cc1C [An_1999/3_77, Fc1cc(C)c(cc1)\C(=C\OCCN1C[C@@H](CCC1)C(O)=O)\c1ccc(F)cc1C] | 7.222
Cc1ccccc1/C(=C/OCCN1CCC=C(C(=O)O)C1)c1cccc(Cl)c1 [An_1999/3_78, Clc1cc(ccc1)/C(=C\OCCN1CC(=CCC1)C(O)=O)/c1ccccc1C] | 7.222
O=C(O)[C@@H]1CCCN(CCOC=C(c2ccc(F)cc2F)c2ccc(F)cc2F)C1 [An_1999/3_79, Fc1cc(F)ccc1\C(=C\OCCN1C[C@@H](CCC1)C(O)=O)\c1ccc(F)cc1F] | 6.886
Cc1ccsc1C(=NOCCN1CCC[C@H](C(=O)O)C1)c1sccc1C [An_1999/3_80, s1ccc(C)c1\C(=N\OCCN1C[C@H](CCC1)C(O)=O)\c1sccc1C] | 7.097
Cc1ccsc1/C(=N\OCCN1CCC[C@@H](C(=O)O)C1)c1cccs1 [An_1999/3_81, s1ccc(C)c1\C(=N/OCCN1C[C@@H](CCC1)C(O)=O)\c1sccc1] | 7.155
Cc1ccccc1/C(=N/OCCN1CCC[C@H](C(=O)O)C1)c1sccc1C [An_1999/3_82, s1ccc(C)c1/C(=N\OCCN1C[C@H](CCC1)C(O)=O)/c1ccccc1C] | 7.097
Cc1ccccc1/C(=N\OCCN1CCC[C@H](C(=O)O)C1)c1sccc1C [An_1999/3_83, s1ccc(C)c1/C(=N/OCCN1C[C@H](CCC1)C(O)=O)/c1ccccc1C] | 6.886
Cc1cc(Cl)ccc1/C(=N/OCCN1CCC[C@@H](C(=O)O)C1)c1sccc1C [An_1999/3_84, Clc1cc(C)c(cc1)\C(=N\OCCN1C[C@@H](CCC1)C(O)=O)\c1sccc1C] | 7.046
Cc1ccsc1/C(=N\OCCN1CCC[C@@H](C(=O)O)C1)c1ccc(Cl)cc1Cl [An_1999/3_85, Clc1cc(Cl)ccc1\C(=N\OCCN1C[C@@H](CCC1)C(O)=O)\c1sccc1C] | 7.523
